Tests used:
Assay type in all cases: in vivo
Veronica persica [1] = assay: Test Example 4: herbicidal effect by soil treatment (symbol R); details: application herbicide amount 320 g/ha
Procedure, shortened: (§1)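 Seeds were sown in sterilized diluvial soil, covered with about 1.5 cm of soil, and the soil surface was sprayed with a water-diluted emulsion of the compound at a predetermined rate. Plants grew in a greenhouse at 25° C. to 30° C.; effects were scored visually 3 weeks after application.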

Avena fatua [2] = assay: Test Example 5: herbicidal effect by foliage application, plastic box (symbol I); details: 320 g/ha, 3 weeks after application
Procedure, shortened: (§2)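 Sowing in sterilized diluvial soil, 14 days' greenhouse growth at 25° C. to 30° C., then uniform small-sprayer foliar application of aqueous emulsion dilution; plants scored three weeks afterwards.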

Monochoria vaginalis = assay: Test Example 2: herbicidal activity, application during weed generation in submerged conditions (symbol C); details: Table 23; application herbicide amount 320 g/ha; grade 0-5 by criteria of Test Example 1
Procedure, shortened: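 Weeds emerging under flooded conditions were treated with compound formulated as an emulsion and diluted with water to the intended herbicide amount, poured onto the surface of 4 cm standing water. Seeds had been co-sown in alluvial soil; plants grew at 25° C. to 30° C. and were assessed after 3 weeks.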

Veronica persica [3] = assay: Test Example 5: herbicidal effect by foliage application, plastic box (symbol R); details: 320 g/ha, 3 weeks after application
Procedure, shortened: as §2

Digitaria ciliaris = assay: Test Example 5: herbicidal effect by foliage application, plastic box (symbol F); details: 320 g/ha, 3 weeks after application
Procedure, shortened: as §2

Avena fatua [4] = assay: Test Example 4: herbicidal effect by soil treatment (symbol I); details: application herbicide amount 320 g/ha
Procedure, shortened: as §1

Chenopodium album = assay: Test Example 5: herbicidal effect by foliage application, plastic box (symbol O); details: 320 g/ha, 3 weeks after application
Procedure, shortened: as §2

Setaria viridis [5] = assay: Test Example 5: herbicidal effect by foliage application, plastic box (symbol G); details: 320 g/ha, 3 weeks after application
Procedure, shortened: as §2

rice = assay: Test Example 4: effect on crop by soil treatment (symbol b); details: application herbicide amount 320 g/ha
Procedure, shortened: (§3)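 The test used sterilized diluvial soil. Seed was set down in spots and overlaid with about 1.5 cm of soil before growth in a greenhouse kept at 25° C. to 30° C.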

Setaria viridis [6] = assay: Test Example 4: herbicidal effect by soil treatment (symbol G); details: application herbicide amount 320 g/ha
Procedure, shortened: as §1

Apera spica-venti [7] = assay: Test Example 5: herbicidal effect by foliage application, plastic box (symbol L); details: 320 g/ha, 3 weeks after application
Procedure, shortened: as §2

soybean = assay: Test Example 5: effect on crop by foliage application, plastic box (symbol d); details: 320 g/ha, 3 weeks after application
Procedure, shortened: (§4)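 Crop seed is sown alongside grass and broadleaf weed species in spots in sterilized diluvial soil, then covered to a depth of about 1.5 cm. Plants grow in a greenhouse kept at 25° C. to 30° C.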

rapeseed [8] = assay: Test Example 5: effect on crop by foliage application, plastic box (symbol g); details: 320 g/ha, 3 weeks after application
Procedure, shortened: as §4

[9] = test system: Echinochloa crus-galli var. crus-galli; assay: Test Example 5: herbicidal effect by foliage application, plastic box (symbol H); details: 320 g/ha, 3 weeks after application
Procedure, shortened: as §2

rapeseed [10] = assay: Test Example 4: effect on crop by soil treatment (symbol g); details: application herbicide amount 320 g/ha
Procedure, shortened: as §3

Abutilon theophrasti = assay: Test Example 5: herbicidal effect by foliage application, plastic box (symbol M); details: 320 g/ha, 3 weeks after application
Procedure, shortened: as §2

Scirpus juncoides = assay: Test Example 1: herbicidal activity, application before weed generation in submerged conditions (symbol B); details: application herbicide amount 320 g/ha
Procedure, shortened: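 Flooded alluvial soil (4 cm water) was mixed-sown with the three weed species, and 2.5-leaf rice seedlings were transplanted. On sowing day, a water-diluted emulsion at a predetermined rate was applied to the water surface. After 3 weeks in a 25–30 °C greenhouse, effect was scored 0–5.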

Apera spica-venti [11] = assay: Test Example 4: herbicidal effect by soil treatment (symbol L); details: application herbicide amount 320 g/ha
Procedure, shortened: as §1

| SMILES | Herbicidal effect grade, R: Veronica persica (Veronica persica [1]) | Herbicidal effect grade, I: Avena fatua (Avena fatua [4]) | Effect on crop grade, b: directly sowed rice plant (rice) | Herbicidal effect grade, G: Setaria viridis (Setaria viridis [6]) | Effect on crop grade, g: rapeseed (rapeseed [10]) | I: Avena fatua, herbicidal effect (criteria of Test Example 1) (Avena fatua [2]) | R: Veronica persica, herbicidal effect (criteria of Test Example 1) (Veronica persica [3]) | F: Digitaria ciliaris, herbicidal effect (criteria of Test Example 1) (Digitaria ciliaris) | O: Chenopodium album, herbicidal effect (criteria of Test Example 1) (Chenopodium album) | G: Setaria viridis, herbicidal effect (criteria of Test Example 1) (Setaria viridis [5]) | Herbicidal effect grade, L: Apera spica-venti (Apera spica-venti [11]) | L: Apera spica-venti, herbicidal effect (criteria of Test Example 1) (Apera spica-venti [7]) | d: soybean, effect on crop (criteria of Test Example 1) (soybean) | g: rapeseed, effect on crop (criteria of Test Example 1) (rapeseed [8]) | H: Echinochloa crus-galli var. crus-galli, herbicidal effect (criteria of Test Example 1) [9] | M: Abutilon theophrasti, herbicidal effect (criteria of Test Example 1) (Abutilon theophrasti) | other results |
| --- | --- | --- | --- | --- | --- | --- | --- | --- | --- | --- | --- | --- | --- | --- | --- | --- | --- |
| CC(CC1CC(O)=C(c2c(C)cc(Br)cc2C)C1=O)=NOCC(=O)N(C)C (mixture of isomers) [9-029] | 0 (Herbicidal ratio of 5% or lower (almost no effect)) | 0 (Herbicidal ratio of 5% or lower (almost no effect)) | 1 (Herbicidal ratio of 5% or higher and lower than 20%) | 4 (Herbicidal ratio of 70% or higher and lower than 90%) | 0 (Herbicidal ratio of 5% or lower (almost no effect)) | – | – | – | – | – | – | – | – | – | – | – | I: Avena fatua, herbicidal effect grade (Avena fatua [2]): 5 (Herbicidal ratio of 90% or more (almost completely withered)); Herbicidal effect grade, C: Monochoria vaginalis (Monochoria vaginalis): 0 (Herbicidal ratio of 5% or lower (almost no effect)); R: Veronica persica, herbicidal effect grade (Veronica persica [3]): 0 (Herbicidal ratio of 5% or lower (almost no effect)); F: Digitaria ciliaris, herbicidal effect grade (Digitaria ciliaris): 3 (Herbicidal ratio of 40% or higher and lower than 70%); O: Chenopodium album, herbicidal effect grade (Chenopodium album): 0 (Herbicidal ratio of 5% or lower (almost no effect)); G: Setaria viridis, herbicidal effect grade (Setaria viridis [5]): 3 (Herbicidal ratio of 40% or higher and lower than 70%); L: Apera spica-venti, herbicidal effect grade (Apera spica-venti [7]): 4 (Herbicidal ratio of 70% or higher and lower than 90%); d: soybean, effect on crop grade (soybean): 0 (Herbicidal ratio of 5% or lower (almost no effect)); g: rapeseed, effect on crop grade (rapeseed [8]): 4 (Herbicidal ratio of 70% or higher and lower than 90%); H: Echinochloa crus-galli var. crus-galli, herbicidal effect grade [9]: 3 (Herbicidal ratio of 40% or higher and lower than 70%); M: Abutilon theophrasti, herbicidal effect grade (Abutilon theophrasti): 0 (Herbicidal ratio of 5% or lower (almost no effect)) |
| CON=C(C)CC1CC(OC(=O)COc2cccc(C#N)c2)=C(c2c(C)cc(C)cc2C)C1=O (centres unmarked) [1-074] | – | – | – | – | – | – | – | – | – | – | – | – | – | – | – | – | R (Veronica persica) herbicidal effect grade (Veronica persica [1]): 0 (Herbicidal ratio of 5% or lower (almost no effect)); I: Avena fatua, herbicidal effect (criteria 0-5) (Avena fatua [2]): 5 (Herbicidal ratio of 90% or more (almost completely withered)); Herbicidal effect grade, B: Scirpus juncoides (Scirpus juncoides): 5 (Herbicidal ratio of 90% or more (almost completely withered)); F: Digitaria ciliaris, herbicidal effect (criteria 0-5) (Digitaria ciliaris): 5 (Herbicidal ratio of 90% or more (almost completely withered)); I (Avena fatua) herbicidal effect grade (Avena fatua [4]): 4 (Herbicidal ratio of 70% or higher and lower than 90%); O: Chenopodium album, herbicidal effect (criteria 0-5) (Chenopodium album): 2 (Herbicidal ratio of 20% or higher and lower than 40%); G: Setaria viridis, herbicidal effect (criteria 0-5) (Setaria viridis [5]): 5 (Herbicidal ratio of 90% or more (almost completely withered)); b (directly sowed rice plant) effect on crop grade (rice): 5 (Herbicidal ratio of 90% or more (almost completely withered)); L (Apera spica-venti) herbicidal effect grade (Apera spica-venti [11]): 5 (Herbicidal ratio of 90% or more (almost completely withered)); G (Setaria viridis) herbicidal effect grade (Setaria viridis [6]): 5 (Herbicidal ratio of 90% or more (almost completely withered)); L: Apera spica-venti, herbicidal effect (criteria 0-5) (Apera spica-venti [7]): 5 (Herbicidal ratio of 90% or more (almost completely withered)); d: soybean, effect on crop (criteria 0-5) (soybean): 4 (Herbicidal ratio of 70% or higher and lower than 90%); g: rapeseed, effect on crop (criteria 0-5) (rapeseed [8]): 4 (Herbicidal ratio of 70% or higher and lower than 90%); H: Echinochloa crus-galli var. crus-galli, herbicidal effect (criteria 0-5) [9]: 5 (Herbicidal ratio of 90% or more (almost completely withered)); g (rapeseed) effect on crop grade (rapeseed [10]): 4 (Herbicidal ratio of 70% or higher and lower than 90%); M: Abutilon theophrasti, herbicidal effect (criteria 0-5) (Abutilon theophrasti): 3 (Herbicidal ratio of 40% or higher and lower than 70%) |
| CC(=O)CC1CC(O)=C(c2c(C)cc(Oc3ccccc3)cc2C)C1=O (centres unmarked) [7-014] | 0 (Herbicidal ratio of 5% or lower (almost no effect)) | 0 (Herbicidal ratio of 5% or lower (almost no effect)) | 4 (Herbicidal ratio of 70% or higher and lower than 90%) | 2 (Herbicidal ratio of 20% or higher and lower than 40%) | 0 (Herbicidal ratio of 5% or lower (almost no effect)) | 1 (Herbicidal ratio of 5% or higher and lower than 20%) | 0 (Herbicidal ratio of 5% or lower (almost no effect)) | 5 (Herbicidal ratio of 90% or more (almost completely withered)) | 0 (Herbicidal ratio of 5% or lower (almost no effect)) | 0 (Herbicidal ratio of 5% or lower (almost no effect)) | 0 (Herbicidal ratio of 5% or lower (almost no effect)) | 0 (Herbicidal ratio of 5% or lower (almost no effect)) | 0 (Herbicidal ratio of 5% or lower (almost no effect)) | 1 (Herbicidal ratio of 5% or higher and lower than 20%) | 5 (Herbicidal ratio of 90% or more (almost completely withered)) | 0 (Herbicidal ratio of 5% or lower (almost no effect)) | – |
| CC(=O)CC1CC(O)=C(c2c(C)cc(-c3ccc(OC(F)(F)F)cc3)cc2C)C1=O (centres unmarked) [7-016] | 0 (Herbicidal ratio of 5% or lower (almost no effect)) | 0 (Herbicidal ratio of 5% or lower (almost no effect)) | 0 (Herbicidal ratio of 5% or lower (almost no effect)) | 2 (Herbicidal ratio of 20% or higher and lower than 40%) | 0 (Herbicidal ratio of 5% or lower (almost no effect)) | 0 (Herbicidal ratio of 5% or lower (almost no effect)) | 0 (Herbicidal ratio of 5% or lower (almost no effect)) | 0 (Herbicidal ratio of 5% or lower (almost no effect)) | 0 (Herbicidal ratio of 5% or lower (almost no effect)) | 1 (Herbicidal ratio of 5% or higher and lower than 20%) | 0 (Herbicidal ratio of 5% or lower (almost no effect)) | 0 (Herbicidal ratio of 5% or lower (almost no effect)) | 0 (Herbicidal ratio of 5% or lower (almost no effect)) | 0 (Herbicidal ratio of 5% or lower (almost no effect)) | 1 (Herbicidal ratio of 5% or higher and lower than 20%) | 0 (Herbicidal ratio of 5% or lower (almost no effect)) | – |
| CC(=O)CC1CC(O)=C(c2c(C)cc(-c3ncccn3)cc2C)C1=O (centres unmarked) [7-017] | 0 (Herbicidal ratio of 5% or lower (almost no effect)) | 0 (Herbicidal ratio of 5% or lower (almost no effect)) | 0 (Herbicidal ratio of 5% or lower (almost no effect)) | 0 (Herbicidal ratio of 5% or lower (almost no effect)) | 0 (Herbicidal ratio of 5% or lower (almost no effect)) | 0 (Herbicidal ratio of 5% or lower (almost no effect)) | 0 (Herbicidal ratio of 5% or lower (almost no effect)) | 5 (Herbicidal ratio of 90% or more (almost completely withered)) | 0 (Herbicidal ratio of 5% or lower (almost no effect)) | 5 (Herbicidal ratio of 90% or more (almost completely withered)) | 0 (Herbicidal ratio of 5% or lower (almost no effect)) | 3 (Herbicidal ratio of 40% or higher and lower than 70%) | 0 (Herbicidal ratio of 5% or lower (almost no effect)) | 0 (Herbicidal ratio of 5% or lower (almost no effect)) | 5 (Herbicidal ratio of 90% or more (almost completely withered)) | 0 (Herbicidal ratio of 5% or lower (almost no effect)) | – |

Reference: patent US11000033B2, “Ketone or oxime compound, and herbicide” (NISSAN CHEMICAL CORPORATION, priority 2014, dated 2021)
